Test results reported in patent US5559101A, “L-ribofuranosyl nucleosides” (priority 1994, dated 1996).
In brackets after ≈: the same amount, converted by molar mass. Like-named read-outs stand apart in the source and are kept apart here.

Experiments:
SKLU (lung) = test: Radiometric growth inhibition of tumor cells, SKLU; type: cell-based, human; set-up: % SURVIVAL TUMOR: concentration or dose not given beside the values; settings: for IC50: concentration required to kill 50%
Source text: (§1) CELL LINES: Eight different established human cell lines CALU (lung), COLO320 (colon), H578St (breast), HT-29 (colon), MCF-7 (breast), OM-1 (colon), SKLU (lung) and SKMES(lung), and two control cell lines (bone marrow and/or fibroblast cells) were utilized. All cell lines were obtained from the Tumor Cloning Laboratory, Institute for Drug Development, Cancer Therapy and Research Center, San Antonio, Tex. All cell lines grew as monolayers in the appropriate culture medium supplemented with heat-inactivated calf serum. All reagents were obtained from Grand Island Biological Co., Grand Island, N.Y.
(§2) The iv formulations of the compounds of the present invention were prepared with sterile buffered saline and stored at -70° C. until required for testing.
(§3) Following trypsinization, tumor cells were suspended in tissue culture medium and exposed to the antitumor agents continuously at three different concentrations: 10, 1 and 0.1 μg/ml.
(§4) RADIOMETRIC MEASUREMENT OF GROWTH INHIBITION: Growth inhibition was assessed with the BACTEC System 460 (Johnston Laboratories, Towson, Md.) after addition of the antitumor agent to the cell in the respective growth medium containing ^14 C-glucose at a final concentration of 2 μCi/ml.
(§5) Two mls of the tumor cell suspension containing radioactive glucose were seeded into sterile, disposable 15 ml vials by injection through self-sealing rubber-aluminum caps. […] The seeded vials were then incubated at 37° C. Measurement of the release of ^14 CO2 resulting from the metabolism of ^14 C-glucose were performed on days 6, 9, 12 and 15 in the BACTEC instrument. This instrument flushes the ^14 CO2 containing air out of the vials into an ionization chamber that converts dpm to growth index values. […] Each data point represents triplicate values.
(§6) All compounds were dosed on an equimilimolar basis.

MCF-7 (breast) = test: Radiometric growth inhibition of tumor cells, MCF-7; type: cell-based, human; set-up: % SURVIVAL TUMOR: concentration or dose not given beside the values; settings: MCF-7; for IC50: concentration required to kill 50%; for % SURVIVAL TUMOR: continuous exposure
Source text: as §1, §2, §3, §4, §5, §6

HT29 (colon) = test: Radiometric growth inhibition of tumor cells, HT29; type: cell-based, human; set-up: % SURVIVAL TUMOR: concentration or dose not given beside the values; settings: for IC50: concentration required to kill 50%
Source text: as §1, §2, §3, §4, §5, §6

OM-1 (colon) = test: Radiometric growth inhibition of tumor cells, OM-1; type: cell-based, human; set-up: % SURVIVAL TUMOR: concentration or dose not given beside the values; settings: for IC50: concentration required to kill 50%
Source text: as §1, §2, §3, §4, §5, §6

[1] = In vitro survival of bone marrow control cells (radiometric BACTEC); type: cell-based; set-up: concentration or dose not given beside the values
Source text: as §1, §2, §3, §4, §5, §6

CALU (lung) = test: Radiometric growth inhibition of tumor cells, CALU; type: cell-based, human; set-up: % SURVIVAL TUMOR: concentration or dose not given beside the values; settings: for IC50: Homo sapiens, concentration required to kill 50%, read-out: IC 50
Source text: as §1, §2, §3, §4, §5, §6

COLO320 (colon) = test: Radiometric growth inhibition of tumor cells, COLO320; type: cell-based, human; settings: for IC50: Homo sapiens, COLO 320, COLO320, concentration required to kill 50%, read-out: IC 50; for % SURVIVAL TUMOR: human, colo320 colon tumor cells
Source text: as §1, §2, §3, §4, §5, §6

[2] = Homo sapiens, HT-29, HT29, read-out: IC 50
[3] = bone marrow control cells, continuous exposure, read-out: % SURVIVAL BONE MARROW
[4] = Homo sapiens, SKLU, read-out: IC 50
[5] = Homo sapiens, MCF7, read-out: IC 50
[6] = Homo sapiens, OM-1, read-out: IC 50

Compound: 2'-Deoxy-β-L-5-fluorouridine
- IC50 (SKLU (lung); SKLU): 32.5
- IC50 (MCF-7 (breast)): 16.6
- IC50 (HT29 (colon); HT29): 85.2
- IC50 (OM-1 (colon); OM-1): 62.9

Compound: O=C(OC[C@@H]1O[C@@H](n2ccc(=S)[nH]c2=O)[C@@H](OC(=O)c2ccccc2)[C@H]1OC(=O)c1ccccc1)c1ccccc1 [1-(2,3,5-Tri-O-benzoyl-α-L-ribofuranosyl)-4-thiouracil]
- % SURVIVAL TUMOR (HT29 (colon); HT29, continuous exposure): 75%
- IC50 (HT29 (colon); [2]): > 10 µg/mL
- viability [1, 3]: 85.9%

Compound: O=c1ccn([C@@H]2CC[C@H](CO)O2)c(=O)[nH]1 [2',3'-β-L-dideoxy ribofuranosyl uracil, 2',3'-Dideoxy-β-L-uridine]
- % SURVIVAL TUMOR (CALU (lung); CALU, continuous exposure): 0.4%
- IC50 (CALU (lung); CALU): 0.623 µg/mL (≈ 2.94 µM)
- viability ([1]; bone marrow cells): 79.8%

Compound: O=c1[nH]c(=O)n([C@@H]2C[C@@H](O)[C@H](CO)O2)cc1F [2'-Deoxy-β-L-5-fluorouridine]
- IC50 (SKLU (lung); [4]): 59.9 µg/mL (≈ 243 µM)
- % SURVIVAL TUMOR (SKLU (lung); human, sklu lung tumor cells): 86.2%
- IC50 (MCF-7 (breast); [5]): 60.7 µg/mL (≈ 247 µM)
- % SURVIVAL TUMOR (MCF-7 (breast)): 86.9%
- % SURVIVAL TUMOR (HT29 (colon); HT29, continuous exposure): 42.5%
- IC50 (HT29 (colon); [2]): 8.46 µg/mL (≈ 34.4 µM)
- IC50 (OM-1 (colon); [6]): 56.1 µg/mL (≈ 228 µM)
- % SURVIVAL TUMOR (OM-1 (colon); human, om-1 colon tumor cells): 85.2%
- IC50 (COLO320 (colon)): 6.56 µg/mL (≈ 26.6 µM)
- % SURVIVAL TUMOR (COLO320 (colon)): 19.6%
- viability ([1]; bone marrow cells): 109%

Compound: Nc1ncnc2c1ncn2[C@@H]1C[C@@H](O)[C@H](CO)O1 [2'-β-L-deoxy ribofuranosyl adenine]
- IC50 (CALU (lung); CALU): 0.696 µg/mL (≈ 2.77 µM)
- % SURVIVAL TUMOR (CALU (lung); human, calu lung tumor cells): 28.9%
- viability ([1]; bone marrow cells): 64.9%

Compound: O=c1[nH]cnc2c1ncn2[C@@H]1C[C@@H](O)[C@H](CO)O1 [2'-β-L-deoxy ribofuranosyl hypoxanthine, 2'-Deoxy-β-L-inosine]
- IC50 (OM-1 (colon); [6]): > 10 µg/mL
- % SURVIVAL TUMOR (OM-1 (colon); human, om-1 colon tumor cells): 83.1%
- viability ([1]; bone marrow cells): 110%

Compound: Cc1cn([C@@H]2C[C@@H](O)[C@H](CO)O2)c(=O)[nH]c1=O [2'-β-L-deoxy ribofuranosyl thymine, 2'-Deoxy-β-L-thymidine]
- IC50 (SKLU (lung); [4]): 38.2 µg/mL (≈ 158 µM)
- % SURVIVAL TUMOR (SKLU (lung); human, sklu lung tumor cells): 72.4%
- IC50 (HT29 (colon); [2]): 30.4 µg/mL (≈ 126 µM)
- % SURVIVAL TUMOR (HT29 (colon); human, ht29 colon tumor cells): 72.2%
- IC50 (OM-1 (colon); [6]): 6.5 µg/mL (≈ 26.8 µM)
- % SURVIVAL TUMOR (OM-1 (colon); human, om-1 colon tumor cells): 37.6%
- IC50 (COLO320 (colon)): 57.4 µg/mL (≈ 237 µM)
- % SURVIVAL TUMOR (COLO320 (colon)): 67.0%
- viability ([1]; bone marrow cells): 159%

Compound: O=c1[nH]c(=S)ccn1[C@@H]1C[C@@H](O)[C@H](CO)O1 [2'-β-L-deoxy ribofuranosyl-4-thiouracil, 2'-Deoxy-β-L-4-thiouridine]
- IC50 (SKLU (lung); [4]): > 10 µg/mL
- % SURVIVAL TUMOR (SKLU (lung); SKLU, continuous exposure): 79.4%
- IC50 (OM-1 (colon); [6]): 34.3 µg/mL (≈ 140 µM)
- % SURVIVAL TUMOR (OM-1 (colon); OM-1, continuous exposure): 82.3%
- viability [1, 3]: 98.2%

Compound: NC1=N[C@@H]2O[C@@H](CO)[C@H](O)[C@@H]2O1 [2-Amino-α-L-ribofurano[1',2':4,5]oxazoline]
- IC50 (OM-1 (colon); [6]): 0.026 µg/mL (≈ 0.149 µM)
- % SURVIVAL TUMOR (OM-1 (colon); OM-1, continuous exposure): 2.6%
- viability [1, 3]: 115%

Compound: NC1=N[C@H]2O[C@@H](CO)[C@H](O)[C@H]2O1 [2-Amino-β-L-arabinofurano[1',2':4,5]oxazoline]
- IC50 (MCF-7 (breast); [5]): 187 µg/mL (≈ 1070 µM)
- % SURVIVAL TUMOR (MCF-7 (breast)): 88.8%
- IC50 (OM-1 (colon); [6]): 5 µg/mL (≈ 28.7 µM)
- % SURVIVAL TUMOR (OM-1 (colon); OM-1, continuous exposure): 41.3%
- % SURVIVAL TUMOR (CALU (lung); CALU, continuous exposure): 89%
- IC50 (CALU (lung); CALU): 44.6 µg/mL (≈ 256 µM)
- viability [1, 3]: 110%

Compound: O=C(OC[C@@H]1O[C@H](n2ccc(=S)[nH]c2=O)C[C@H]1OC(=O)c1ccccc1)c1ccccc1 [3',5'-Di-O-benzoyl-2'deoxy-4-thio β-L-uridine]
- IC50 (SKLU (lung); [4]): 88.7 µg/mL (≈ 196 µM)
- % SURVIVAL TUMOR (SKLU (lung); SKLU, continuous exposure): 77.7%
- IC50 (MCF-7 (breast); [5]): > 10 µg/mL
- % SURVIVAL TUMOR (MCF-7 (breast)): 84.5%
- IC50 (OM-1 (colon); [6]): 0.98 µg/mL (≈ 2.17 µM)
- % SURVIVAL TUMOR (OM-1 (colon); OM-1, continuous exposure): 35.7%
- viability [1, 3]: 102%
